From US20150057357A1, “BIS (THIOHYDRAZIDE AMIDE) COMPOUNDS FOR TREATING CANCERS” (The Board of Trustees of The Leland Stanford Junior …, priority 2012, published 2015)

Assays:
[1] = tested on: basal-like breast cancer cells (BT549, HCC1806, MDAMB468); experiment: MTT drug sensitivity assay, basal-like breast cancer cells; assay type: cell-based, human
Description: (§1) Human breast cell lines represented the normal breast (MCF12A), basal-like breast cancer (BT549, HCC1806, MDAMB468), BRCA1-mutated breast cancer (HCC1937, SUM149PT, SUM1315MO2), and luminal breast cancer (BT474, MDAMB361, and T47D). Stable cell lines expressing shRNA to hOGG1 (shOGG1) or a non-targeting control (shCTRL) and BRCA1^+/+ and BRCA1^−/− mouse mammary epithelial cells have been previously described (E. Alli, V. B. Sharma, P. Sunderesakumar, J. M. Ford, Defective repair of oxidative dna damage in triple-negative breast cancer confers sensitivity to inhibition of poly(ADP-ribose) polymerase, Cancer Res, 69, 2009, 3589-3596). All cell lines were maintained at 37° C. and 5% CO2.
(§2) Cells were exposed to increasing concentrations of elesclomol and incubated at 37° C. in the presence of 5% CO2 for 96 hours. Cellular sensitivity was then determined by MTT assay and expressed as a percentage of the vehicle control (DMSO). Each data point represents the average of quadruplicate determinations +/−S.D. Images were obtained under 10× objective and are representative.
(§3) Cell lines that represent the normal breast or BRCA1-mutated, basal-like or luminal breast cancers were examined for sensitivity to elesclomol. Shown in FIG. 1 are images of BRCA-1 mutated, basal-like or luminal breast cancer cell cultures after treatment with 0 μM, 0.2 μM or 1 μM elesclomol. […]

[2] = tested on: luminal breast cancer cells (BT474, MDAMB361, T47D); experiment: MTT drug sensitivity assay, luminal breast cancer cells; assay type: cell-based, human; conditions: concentrations of up to 1 μM, 96 hours, FIG. 2
Description: as §1, §2, §3

[3] = tested on: cell lines deficient in the hOOG1 DNA glycosylase (shOGG1-A and sh-OGG1-B); experiment: MTT drug sensitivity assay, base excision repair deficient cells; assay type: cell-based; conditions: shOGG1-A and sh-OGG1-B versus isogenic controls shCTRL-A and shCTRL-B; FIG. 3
Description: as §1, §2
Two different cell lines deficient in the hOOG1 DNA glycosylase that initiates base excision repair (shOGG1-A and sh-OGG1-B) and their isogenic control cells lines (shCTRL-A and shCTRL-B) were examined for sensitivity to elesclomol.

[4] = tested on: normal breast cells (MCF12A); experiment: MTT drug sensitivity assay, normal breast cells; assay type: cell-based, human; conditions: concentrations of up to 1 μM, 96 hours, FIG. 2
Description: as §1, §2, §3

[5] = tested on: BRCA1-mutated breast cancer cells (HCC1937, SUM149PT, SUM1315MO2); experiment: MTT drug sensitivity assay, BRCA1-mutated breast cancer cells; assay type: cell-based, human
Description: as §1, §2, §3

**Q.** With `CN(NC(=O)CC(=O)NN(C)C(=S)c1ccccc1)C(=S)c1ccccc1` [elesclomol] as the molecule, how does the “sensitivity to elesclomol (cellular viability dose-response)” value ([1]; basal-like breast cancers compared to normal breast cells or luminal breast cancer cells, FIG. 1, FIG. 2) read?
**A.** The value was “increased sensitivity”.

**Q.** What about the induced cell death ([1]; concentrations of up to 1 μM, 96 hours, basal-like breast cancer cells, FIG. 2) of the same molecule?
**A.** Its induced cell death is “up to 75%”.

**Q.** And the “effect of treatment on cells (cell death)” value [2]?
**A.** The value was “remained unaffected”.

**Q.** What about the “sensitivity to elesclomol (cell viability, MTT)” value [3] of the same molecule?
**A.** Its value is “increased sensitivity”.

**Q.** And the “effect of treatment on cells (cell death)” value [4]?
**A.** Its value is “remained unaffected”.

**Q.** And the “sensitivity to elesclomol (cellular viability dose-response)” value ([5]; BRCA1-mutated breast cancers compared to normal breast cells or luminal breast cancer cells, FIG. 1, FIG. 2)?
**A.** The value was “increased sensitivity”.

**Q.** And the induced cell death ([5]; concentrations of up to 1 μM, 96 hours, BRCA1-mutated breast cancer cells, FIG. 2)?
**A.** The induced cell death was “up to 95%”.
